Experimental data reported in US8551510B2, “Bed bug control and repellency” (Bedoukian Research, Inc., priority 2009, dated 2013).
Where two headings read alike, the source gives them in different places.

Tested on: bed bugs
Test: Choice test with unconcealed bed bugs on filter paper discs, test compound in acetone vs. acetone only (percent repellency)
Format: in vivo
Details: for percent repellency at 2 hour: 2 hour post-treatment (Table 2)
Method: This test was undertaken employing unconcealed bugs. Two semicircular discs of filter paper, 9 cm in radius treated with 1 ml of solution to wet the entire surface, one treated with an acetone solution of the test compound and one only acetone treated were placed on the lid of a Petri dish. Five replicates of ten (10) bed bugs were release into the center of the lids of the Petri dish with a choice of the test compound treated or only acetone treated substrate. The distribution of bed bugs was recorded at ½, […], 2, 6 and 24 hours post-treatment. Paired t-tests were conducted for each treatment to ascertain whether or not there was a statistically significant difference in the number of bed bugs on the treated vs. untreated discs.

[1] = chemical at 0.5% in acetone on filter paper, 0.5 hr post-treatment, read-out: percent repellency at 0.5 hr
[2] = chemical at 0.5% in acetone on filter paper, 1 hr post-treatment, read-out: percent repellency at 1 hr
[3] = chemical at 0.5% in acetone on filter paper, 6 hr post-treatment, read-out: percent repellency at 6 hr
[4] = chemical at 0.5% in acetone on filter paper, 24 hr post-treatment, read-out: percent repellency at 24 hr
[5] = chemical at 0.5%, average of 0.5, 1, 6 and 24 hr, read-out: percent repellency, Average
[6] = 0.5 h, read-out: percent repellency at 0.5 hr
[7] = 1 h, read-out: percent repellency at 1 hr
[8] = 6 h, read-out: percent repellency at 6 hr
[9] = 24 h, read-out: percent repellency at 24 hr
[10] = read-out: percent repellency, Average
[11] = chemical at 0.2% in acetone on filter paper, 0.5 hr post-treatment, read-out: percent repellency at 0.5 hr
[12] = chemical at 0.2% in acetone on filter paper, 1 hr post-treatment, read-out: percent repellency at 1 hr
[13] = chemical at 0.2% in acetone on filter paper, 6 hr post-treatment, read-out: percent repellency at 6 hr
[14] = chemical at 0.2% in acetone on filter paper, 24 hr post-treatment, read-out: percent repellency at 24 hr
[15] = chemical at 0.2%, average of 0.5, 1, 6 and 24 hr, read-out: percent repellency, Average

CC1=CCC(C(C)CC2CCCC2=O)CC1 (stereo not drawn) [Nectaryl ™, 2-(2-(4-methyl-3-cyclohexen-1-yl)propyl) cyclopentanone]
pest or weed control at 0.5 % [1]: 87.8% | pest or weed control at 0.5 % [2]: 95.9% | pest or weed control at 0.5 % [3]: 100% | pest or weed control at 0.5 % [4]: 100% | pest or weed control at 0.5 % [5]: 95.9%

CCC(C)CCCC(C)CCC1CCCC1=O (stereo not drawn) [Tetrahydro methyl apritone, 2-(3,7-dimethynonyl)cyclopentanone]
percent repellency at 2 hour (chemical at 0.2%): 88%

CC(=O)C=CC1C(C)=CCCC1(C)C (stereo not drawn) [Alpha Ionone, 4-(2,6,6-trimethyl-2-cyclohexenyl)-3-buten-2-one]
pest or weed control at 0.5 % [6]: 100% | pest or weed control at 0.5 % [7]: 100% | pest or weed control at 0.5 % [8]: 100% | pest or weed control at 0.5 % [9]: 84% | pest or weed control at 0.5 % [10]: 96%

O=C1CCC/C=C\CCCCCCCCCC1 [Cyclohexadec-5-ene-1-one, (5Z) cyclohexadec-5-ene-1-one]
pest or weed control at 0.1 % (chemical at 0.1% in acetone on filter paper, 0.5 hr post-treatment, read-out: percent repellency at 0.5 hr): 94% | pest or weed control at 0.1 % (chemical at 0.1% in acetone on filter paper, 1 hr post-treatment, read-out: percent repellency at 1 hr): 94% | pest or weed control at 0.1 % (chemical at 0.1% in acetone on filter paper, 6 hr post-treatment, read-out: percent repellency at 6 hr): 100% | pest or weed control at 0.1 % (chemical at 0.1% in acetone on filter paper, 24 hr post-treatment, read-out: percent repellency at 24 hr): 100% | pest or weed control at 0.1 % (chemical at 0.1%, average of 0.5, 1, 6 and 24 hr, read-out: percent repellency, Average): 97%

CCCCCCCCCCCC(C)=O [Methyl undecyl ketone, 2-tridecanone]
pest or weed control at 0.5 % [1]: 100% | pest or weed control at 0.5 % [2]: 100% | pest or weed control at 0.5 % [3]: 100% | pest or weed control at 0.5 % [4]: 100% | pest or weed control at 0.5 % [5]: 100%

CCCCCCCCC(=O)C(C)=O [2,3-Undecanedione, reference compound]
pest or weed control at 0.5 % [1]: 90% | pest or weed control at 0.5 % [2]: 60% | pest or weed control at 0.5 % [3]: 60% | pest or weed control at 0.5 % [4]: 90% | pest or weed control at 0.5 % [5]: 75%

CCCCCC1C(=O)CCC1CC(=O)OC (stereo not drawn) [Methyl dihydrojasmonate, methyl 2-(3-oxo-2-pentylcyclopentyl)acetate]
pest or weed control at 0.2 % [11]: 86% | pest or weed control at 0.2 % [12]: 96% | pest or weed control at 0.2 % [13]: 94% | pest or weed control at 0.2 % [14]: 92% | percent repellency at 2 hour (chemical at 0.2%): 98% | pest or weed control at 0.2 % [15]: 92%

CCCCCC1C(=O)CCC1CC(=O)OCCC (stereo not drawn) [Propyl dihydrojasmonate, propyl 2-(3-oxo-2-pentylcyclopentyl)acetate]
percent repellency at 2 hour (chemical at 0.2%): 78%

CCCCCCC=CC(C)=O [3-Decen-2-one]
pest or weed control at 0.5 % [1]: 82% | pest or weed control at 0.5 % [2]: 84% | pest or weed control at 0.5 % [3]: 78% | pest or weed control at 0.5 % [4]: 76% | pest or weed control at 0.5 % [5]: 80%

CCCCCC1C(=O)CCC1CC(=O)OCC (stereo not drawn) [Ethyl dihydrojasmonate, ethyl 2-(3-oxo-2-pentylcyclopentyl)acetate]
percent repellency at 2 hour (chemical at 0.2%): 90%

CC1(C)C2CCC3(C2)C1C(=O)CCC3(C)C (stereo not drawn) [Isolongifolanone, 2,2,7,7-tetramethyltricyclo[6.2.1.01,6]undecan-5-one]
pest or weed control at 0.5 % [1]: 90% | pest or weed control at 0.5 % [2]: 88% | pest or weed control at 0.5 % [3]: 98% | pest or weed control at 0.5 % [4]: 98% | pest or weed control at 0.5 % [5]: 93%

CCCCOC(=O)CCC(C)=O [Butyl levulinate, reference compound]
pest or weed control at 0.2 % [11]: 64% | pest or weed control at 0.2 % [12]: 68% | pest or weed control at 0.2 % [13]: 62% | pest or weed control at 0.2 % [14]: 60% | pest or weed control at 0.2 % [15]: 64%

CC(=O)C(C)=CC1C(C)=CCCC1(C)C (stereo not drawn) [Alpha Isomethylionone, 3-methyl-4-(2,6,6-trimethyl-2-cyclohexen-1-yl)-3-buten-2-one]
pest or weed control at 0.5 % [1]: 100% | pest or weed control at 0.5 % [2]: 100% | pest or weed control at 0.5 % [3]: 100% | pest or weed control at 0.5 % [4]: 84% | pest or weed control at 0.5 % [5]: 96%

CC/C=C\CC1C(=O)CCC1CC(=O)OC (stereo not drawn) [Methyl jasmonate, (Z)-methyl 2-(3-oxo-2-(pent-2-enyl)cyclopentyl)acetate]
pest or weed control at 0.2 % [11]: 80% | pest or weed control at 0.2 % [12]: 90% | pest or weed control at 0.2 % [13]: 90% | pest or weed control at 0.2 % [14]: 88% | pest or weed control at 0.2 % [15]: 87%

CC(=O)CCC=C(C)CCC=C(C)C [Geranylacetone, 6,10-dimethyl-5,9-undecadien-2-one]
pest or weed control at 0.5 % [1]: 100% | pest or weed control at 0.5 % [2]: 100% | pest or weed control at 0.5 % [3]: 100% | pest or weed control at 0.5 % [4]: 100% | pest or weed control at 0.5 % [5]: 100%

O=C1CCCC1C1CCCC1 (stereo not drawn) [2-Cyclopentylcyclopentanone, 2-cyclopentylcyclopentanone]
pest or weed control at 0.5 % [1]: 90% | pest or weed control at 0.5 % [2]: 90% | pest or weed control at 0.5 % [3]: 76% | pest or weed control at 0.5 % [4]: 70% | pest or weed control at 0.5 % [5]: 81%

CC1=CCCC(C)(C)C1/C=C/C(=O)CC(C)C (stereo not drawn) [Isobutylionone, (E)-5-Methyl-1-(2,6,6-trimethyl-1-cyclohex-2-enyl) hex-1-en-3-one]
pest or weed control at 0.5 % [1]: 100% | pest or weed control at 0.5 % [2]: 98% | pest or weed control at 0.5 % [3]: 94% | pest or weed control at 0.5 % [4]: 94% | pest or weed control at 0.5 % [5]: 96.5%

CCCCCCCCCC(C)=O [Methyl nonyl ketone, methyl nonyl ketone]
pest or weed control at 0.5 % [6]: 85.7% | pest or weed control at 0.5 % [7]: 84% | pest or weed control at 0.5 % [8]: 80% | pest or weed control at 0.5 % [9]: 74% | pest or weed control at 0.5 % [10]: 80.9%

CCCCCC1C(=O)CCC1CC(=O)OCC=C(C)C (stereo not drawn) [Prenyl dihydrojasmonate, 3-methylbut-2-enyl 2-(3-oxo-2-pentylcyclopentyl)acetate]
percent repellency at 2 hour (chemical at 1.0%): 82%

CCC(=O)/C(C)=C/C1C(C)CC=CC1(C)C (stereo not drawn) [Dimethylionone, (E)-2-methyl-1-(2,2,6-trimethyl-1-cyclohex-3-enyl)pent-1-en-3-one]
pest or weed control at 0.5 % [1]: 90% | pest or weed control at 0.5 % [2]: 96% | pest or weed control at 0.5 % [3]: 96% | pest or weed control at 0.5 % [4]: 92% | pest or weed control at 0.5 % [5]: 93.5%

C=C(C)C1CCC2=CC(=O)CC(C)C2(C)C1 (stereo not drawn) [Nootkatone, 4,4a-dimethyl-6-prop-1-en-2-yl-3,4,5,6,7,8-hexahydronaphthalen-2-one]
percent repellency at 2 hour (chemical at 0.1%): 60% | pest or weed control at 0.5 % [1]: 100% | pest or weed control at 0.5 % [2]: 100% | pest or weed control at 0.5 % [3]: 100% | pest or weed control at 0.5 % [4]: 100% | pest or weed control at 0.5 % [5]: 100%

CC(C)=CCCC(C)=CCC1CCCC1=O (stereo not drawn) [2-Geranylcyclopentanone (Apritone), 2-(3,7-dimethylocta-2,6-dienyl)cyclopentan-1-one]
pest or weed control at 0.5 % [1]: 100% | pest or weed control at 0.5 % [2]: 100% | pest or weed control at 0.5 % [3]: 100% | pest or weed control at 0.5 % [4]: 100% | pest or weed control at 0.5 % [5]: 100%

CCCCCC1CC(=O)C=C(C)C1C(=O)OCC (stereo not drawn) [ethyl 2-methyl-4-oxo-6-pentylcyclohec-2-enecarboxylate]
percent repellency at 2 hour (chemical at 0.2%): 62%

CCCCCC=CCC1CCCC1=O (stereo not drawn) [2-Octenylcyclopentanone, 2-(2-octen-1-yl)cyclopentanone]
pest or weed control at 0.5 % [1]: 100% | pest or weed control at 0.5 % [2]: 100% | pest or weed control at 0.5 % [3]: 100% | pest or weed control at 0.5 % [4]: 100% | pest or weed control at 0.5 % [5]: 100%

CCCCCCCCCCC(C)=O [Methyl decyl ketone, 2-dodecanone]
pest or weed control at 0.5 % [1]: 100% | pest or weed control at 0.5 % [2]: 100% | pest or weed control at 0.5 % [3]: 100% | pest or weed control at 0.5 % [4]: 100% | pest or weed control at 0.5 % [5]: 100%

CC(C)CCCC(C)CCC1CCCC1=O (stereo not drawn) [Tetrahydroapritone]
percent repellency at 2 hour (chemical at 0.2%): 82%

CCC(C)=CCCC(C)=CCC1CCCC1=O (stereo not drawn) [Methyl Apritone, 2-(3,7-dimethyl-2,6-nonadienyl)cyclopentanone]
pest or weed control at 0.2 % [11]: 100% | pest or weed control at 0.2 % [12]: 100% | pest or weed control at 0.2 % [13]: 100% | pest or weed control at 0.2 % [14]: 100% | percent repellency at 2 hour (chemical at 0.2%): 90% | pest or weed control at 0.2 % [15]: 100%
